According to ChEMBL document CHEMBL1201862, “PubChem BioAssay data set” (2004):
Active and inactive are the calls of the source.

Columns and labels:
[1] = biological target: T1, Alkaline phosphatase, tissue-nonspecific isozyme (Homo sapiens, UniProt P05186)
T1 sequence (P05186 whole entry): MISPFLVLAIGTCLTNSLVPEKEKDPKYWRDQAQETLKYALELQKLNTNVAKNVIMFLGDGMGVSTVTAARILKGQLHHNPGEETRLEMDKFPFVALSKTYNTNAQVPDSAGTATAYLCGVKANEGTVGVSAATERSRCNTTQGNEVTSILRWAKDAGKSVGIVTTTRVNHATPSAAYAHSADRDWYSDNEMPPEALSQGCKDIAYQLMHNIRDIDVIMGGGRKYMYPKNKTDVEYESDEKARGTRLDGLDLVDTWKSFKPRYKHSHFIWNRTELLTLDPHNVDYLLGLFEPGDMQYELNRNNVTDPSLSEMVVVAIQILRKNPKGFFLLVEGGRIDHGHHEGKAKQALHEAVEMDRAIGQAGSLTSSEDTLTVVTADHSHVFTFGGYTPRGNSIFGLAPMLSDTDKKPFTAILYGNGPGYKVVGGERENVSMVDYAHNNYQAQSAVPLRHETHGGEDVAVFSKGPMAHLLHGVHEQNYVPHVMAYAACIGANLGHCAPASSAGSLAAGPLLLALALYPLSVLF

[2] = biological target: Voltage-dependent T-type calcium channel subunit alpha-1H (Homo sapiens, UniProt O95180); format: functional;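 also: channel activity triggered by adding a high calcium stimulation buffer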
[3] = biological target: Acyl-homoserine lactone acylase PvdQ (Pseudomonas aeruginosa (strain LESB58), UniProt Q9I194); assay: PvdQ acylase enzyme activity blockers – biochemical, fluorescence, plate reader and imaging, cherry-picks, dose response (AID 493231)
[4] = biological target: X-box-binding protein 1 (Homo sapiens, UniProt P17861); format: functional, Cricetulus griseus;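 also: confirmatory dose-response counter-screen serving a CHOP assay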
[5] = viability of PTEN-deleted HCT116 cells – cell-based, HCT116 PTEN knockout, dose response (AID 1047); format: functional;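 also: HCT116 colon tumor cells with PTEN knocked out; cells exposed to compound for 60 hours before readout; potency for loss of cell viability measured by luminescence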
[6] = viability of HCT116 lacking mutant beta-catenin – cell-based, human colon tumor, dose response (AID 1045); format: functional;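 also: HCT116 colon tumor cells with beta catenin knocked out; cells exposed to compound for 60 hours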
[7] = biological target: T2, RNA-binding protein pos-1 (Caenorhabditis elegans, UniProt G5EF15); assay: disruptors of C. elegans POS-1 RNA interaction – biochemical, fluorescence polarization, dose response (AID 1964);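 also: purified POS-1 fused to maltose binding protein made in E. coli; potency of compounds blocking POS-1 binding to fluorescent RNA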
T2 sequence (G5EF15 whole entry): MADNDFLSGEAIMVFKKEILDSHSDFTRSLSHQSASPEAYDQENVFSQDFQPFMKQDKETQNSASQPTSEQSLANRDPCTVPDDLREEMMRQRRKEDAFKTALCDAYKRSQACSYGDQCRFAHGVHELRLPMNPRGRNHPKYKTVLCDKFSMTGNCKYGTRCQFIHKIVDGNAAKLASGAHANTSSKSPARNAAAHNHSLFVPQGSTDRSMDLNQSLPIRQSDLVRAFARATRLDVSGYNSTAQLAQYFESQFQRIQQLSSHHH

[8] = biological target: T3, Insulin-degrading enzyme (Homo sapiens, UniProt P14735); assay: Dose Response: Fluorescence polarization-based cell-based high throughput dose response assay for inhibitors of insulin-degrading enzyme (IDE). [Related pubchem assays: 434962 (Primary screen (IDE inhibitors in singlicate)), 449730 (Counterscreen (Cytotoxicity in triplicate)), 435028 (Confirmation (IDE inhibitors in triplicate)), 434984 (Summary …; format: functional
T3 sequence (P14735 whole entry): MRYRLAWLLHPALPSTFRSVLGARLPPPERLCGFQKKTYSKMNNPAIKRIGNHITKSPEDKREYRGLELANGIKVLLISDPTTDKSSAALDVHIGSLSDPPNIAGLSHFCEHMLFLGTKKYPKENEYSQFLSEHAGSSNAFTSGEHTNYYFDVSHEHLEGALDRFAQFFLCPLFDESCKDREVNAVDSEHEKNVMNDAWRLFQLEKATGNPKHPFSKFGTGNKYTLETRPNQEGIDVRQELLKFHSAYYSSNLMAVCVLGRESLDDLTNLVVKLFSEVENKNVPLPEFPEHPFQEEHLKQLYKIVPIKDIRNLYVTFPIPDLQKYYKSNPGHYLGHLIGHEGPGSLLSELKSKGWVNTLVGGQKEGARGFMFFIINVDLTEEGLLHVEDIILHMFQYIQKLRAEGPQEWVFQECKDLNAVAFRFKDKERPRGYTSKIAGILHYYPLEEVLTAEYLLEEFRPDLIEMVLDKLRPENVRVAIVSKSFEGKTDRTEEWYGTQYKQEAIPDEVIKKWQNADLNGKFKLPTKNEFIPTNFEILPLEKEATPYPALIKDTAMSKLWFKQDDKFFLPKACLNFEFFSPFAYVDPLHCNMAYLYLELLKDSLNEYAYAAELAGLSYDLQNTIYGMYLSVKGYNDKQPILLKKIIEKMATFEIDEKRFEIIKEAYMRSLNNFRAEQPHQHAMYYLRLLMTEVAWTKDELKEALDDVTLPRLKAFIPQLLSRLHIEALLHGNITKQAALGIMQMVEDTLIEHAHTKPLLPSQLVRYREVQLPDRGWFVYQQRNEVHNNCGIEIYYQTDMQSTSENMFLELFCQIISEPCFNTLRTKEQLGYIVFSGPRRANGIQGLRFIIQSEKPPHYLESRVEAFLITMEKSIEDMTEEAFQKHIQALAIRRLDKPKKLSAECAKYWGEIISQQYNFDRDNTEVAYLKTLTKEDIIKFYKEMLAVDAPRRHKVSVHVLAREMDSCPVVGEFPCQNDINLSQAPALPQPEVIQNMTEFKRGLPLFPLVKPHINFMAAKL

[9] = Counterscreen for IDE inhibitors: Luminescence-based cell-based high throughput dose response assay to identify compounds that are cytotoxic to HEK cells. [Related pubchem assays: 434962 (Primary screen (IDE inhibitors in singlicate)), 449730 (Counterscreen (Cytotoxicity in triplicate)), 435028 (Confirmation (IDE inhibitors in triplicate)) …; format: functional; conditions: HEK293
[10] = biological target: T4, Zinc finger protein mex-5 (Caenorhabditis elegans, UniProt Q9XUB2); assay: potency of MEX-5 RNA-binding blockers – biochemical, C. elegans, fluorescence polarization, dose response (AID 1960)
T4 sequence (Q9XUB2 whole entry): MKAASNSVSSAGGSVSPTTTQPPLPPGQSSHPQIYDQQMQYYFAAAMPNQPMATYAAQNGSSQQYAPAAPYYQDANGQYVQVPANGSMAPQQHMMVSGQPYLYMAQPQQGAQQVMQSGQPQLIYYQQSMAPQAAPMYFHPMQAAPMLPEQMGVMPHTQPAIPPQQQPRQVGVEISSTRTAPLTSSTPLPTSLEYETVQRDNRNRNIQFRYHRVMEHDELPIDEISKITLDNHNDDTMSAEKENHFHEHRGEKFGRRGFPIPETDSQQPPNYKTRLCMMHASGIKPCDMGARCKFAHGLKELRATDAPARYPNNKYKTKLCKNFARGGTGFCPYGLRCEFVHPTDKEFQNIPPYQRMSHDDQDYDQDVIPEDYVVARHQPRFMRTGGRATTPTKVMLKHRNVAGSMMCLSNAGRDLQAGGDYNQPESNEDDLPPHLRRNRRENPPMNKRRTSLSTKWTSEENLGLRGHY

[11] = toxicity toward HepG2 liver cells – cell-based, plate reader, cherry-pick, antagonist series, cytotoxicity control, dose response (AID 743416); format: functional
[12] = biological target: T5, Microphthalmia-associated transcription factor (Homo sapiens, UniProt O75030); assay: reducers of TRPM1 reporter luminescence, concentration series – cell-based, SK-MEL-5, cherry-picked, set 3, MITF inhibitor project, dose response (AID 493073); format: functional;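 also: SK-MEL-5 melanoma cells with luciferase driven by the MITF target TRPM1 promoter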
T5 sequence (O75030 whole entry): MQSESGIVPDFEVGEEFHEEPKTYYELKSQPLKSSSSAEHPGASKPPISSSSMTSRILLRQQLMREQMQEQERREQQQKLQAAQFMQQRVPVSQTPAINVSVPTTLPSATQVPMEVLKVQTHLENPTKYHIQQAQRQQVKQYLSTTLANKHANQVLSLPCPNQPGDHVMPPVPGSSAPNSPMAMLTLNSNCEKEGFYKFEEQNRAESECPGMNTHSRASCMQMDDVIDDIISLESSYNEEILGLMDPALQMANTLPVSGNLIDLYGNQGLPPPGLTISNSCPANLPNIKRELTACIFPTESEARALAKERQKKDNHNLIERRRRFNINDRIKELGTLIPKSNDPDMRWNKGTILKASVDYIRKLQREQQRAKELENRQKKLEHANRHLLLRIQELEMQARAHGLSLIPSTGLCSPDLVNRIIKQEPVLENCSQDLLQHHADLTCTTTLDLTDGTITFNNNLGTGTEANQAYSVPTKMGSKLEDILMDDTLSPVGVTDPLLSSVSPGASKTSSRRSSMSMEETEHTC

[13] = viability loss in HEK293 cells – cell-based, plate reader, cherry-picked samples, cytotoxicity control, dose response (AID 743446); format: functional
[14] = A549 cell cytotoxicity, dose response, cytotoxicity control, plate reader, cherry-pick, antagonist series (AID 743412); format: functional, cell-based
[15] = blockers of bursicon-stimulated LGR2 cAMP reporter – cell-based, HEK293, CRE-luciferase reporter, cherry pick, set 2, dose response (AID 743343); format: functional;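 also: transfected cells were stimulated with diluted bursicon conditioned medium after compound addition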
[16] = blockade of melanocortin 4 receptor signaling – cell-based, plate reader, cherry pick, counter-screen for LGR2 antagonist project, dose response (AID 743444); format: functional;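 also: transfected HEK 293 cells stimulated with alpha-MSH peptide; potency of inhibitors of the alpha-MSH evoked signal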
[17] = biological target: T6, Voltage-gated N-type calcium channel alpha-1B subunit/Amyloid beta A4 precursor protein-binding family A member 1 (Homo sapiens, UniProt Q00975+Q02410); assay: disruptors of Mint-PDZ/N-type channel peptide interaction – biochemical, HTRF, SAR follow-up (AID 2489); format: functional
[18] = biological target: T6, Voltage-gated N-type calcium channel alpha-1B subunit/Amyloid beta A4 precursor protein-binding family A member 1; assay: disruptors of Mint-PDZ/N-type channel peptide interaction – biochemical, HTRF, set 2, SAR follow-up (AID 434980); format: functional
[19] = biological target: C-C chemokine receptor type 6 (Homo sapiens, UniProt P51684); assay: antagonism of CCR6 beta-arrestin recruitment – cell-based, luminescent beta-arrestin readout, dose response (AID 504728); format: functional
[20] = biological target: Beta-galactosidase (Escherichia coli, UniProt Q8VNN2); assay: detection-enzyme interference by beta-gal modulators – biochemical, E. coli enzyme, set 3, artefact control for CCR6 antagonist project, dose response (AID 504712); format: functional
[21] = biological target: T7, Mannose-6-phosphate isomerase (Homo sapiens, UniProt P34949); assay: MPI inhibition at elevated mannose 6-phosphate – biochemical, fluorescence intensity, high mannose 6-phosphate, primary screen (AID 1220)
T7 sequence (P34949 whole entry): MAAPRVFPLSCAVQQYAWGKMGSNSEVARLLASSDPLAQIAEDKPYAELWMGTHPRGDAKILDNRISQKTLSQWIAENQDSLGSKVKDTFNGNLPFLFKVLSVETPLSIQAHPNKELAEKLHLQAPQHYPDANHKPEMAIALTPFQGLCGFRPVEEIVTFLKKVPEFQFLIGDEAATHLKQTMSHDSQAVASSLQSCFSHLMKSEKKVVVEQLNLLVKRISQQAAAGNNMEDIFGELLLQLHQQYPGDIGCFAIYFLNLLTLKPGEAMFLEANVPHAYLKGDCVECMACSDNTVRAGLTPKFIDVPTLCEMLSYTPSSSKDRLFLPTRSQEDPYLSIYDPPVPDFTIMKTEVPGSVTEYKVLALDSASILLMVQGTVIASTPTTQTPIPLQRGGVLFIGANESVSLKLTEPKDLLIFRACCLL

[22] = biological target: T8, Oxysterols receptor LXR-beta (Homo sapiens, UniProt P55055); assay: LXR agonists, Gal4 luciferase reporter, dose response, counter-screen for ssDAF-12 agonist project, cell-based, luminescence, HEK293, S. stercoralis campaign (AID 720737); format: functional; conditions: read-out: IC50 (the source's name)
T8 sequence (P55055 whole entry): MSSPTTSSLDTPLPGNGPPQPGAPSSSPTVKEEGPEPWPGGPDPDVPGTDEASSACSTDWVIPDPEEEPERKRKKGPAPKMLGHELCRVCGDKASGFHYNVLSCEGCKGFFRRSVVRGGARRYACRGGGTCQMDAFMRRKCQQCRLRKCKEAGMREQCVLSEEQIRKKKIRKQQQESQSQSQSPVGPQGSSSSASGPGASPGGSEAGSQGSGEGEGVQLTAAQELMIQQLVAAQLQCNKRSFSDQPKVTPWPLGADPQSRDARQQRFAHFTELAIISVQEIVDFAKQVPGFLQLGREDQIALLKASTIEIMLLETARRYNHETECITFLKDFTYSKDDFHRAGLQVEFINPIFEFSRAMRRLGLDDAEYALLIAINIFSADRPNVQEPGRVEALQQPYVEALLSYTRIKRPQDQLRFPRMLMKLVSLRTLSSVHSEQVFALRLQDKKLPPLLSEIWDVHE

[23] = cells
[24] = Luminescence-based cell-based high throughput dose response assay to identify activators of the DAF-12 from the parasite S. stercoralis (ssDAF-12).; format: functional
[25] = biological target: T8, Oxysterols receptor LXR-beta; format: functional, cell-based

T6 sequence (Q00975 whole entry): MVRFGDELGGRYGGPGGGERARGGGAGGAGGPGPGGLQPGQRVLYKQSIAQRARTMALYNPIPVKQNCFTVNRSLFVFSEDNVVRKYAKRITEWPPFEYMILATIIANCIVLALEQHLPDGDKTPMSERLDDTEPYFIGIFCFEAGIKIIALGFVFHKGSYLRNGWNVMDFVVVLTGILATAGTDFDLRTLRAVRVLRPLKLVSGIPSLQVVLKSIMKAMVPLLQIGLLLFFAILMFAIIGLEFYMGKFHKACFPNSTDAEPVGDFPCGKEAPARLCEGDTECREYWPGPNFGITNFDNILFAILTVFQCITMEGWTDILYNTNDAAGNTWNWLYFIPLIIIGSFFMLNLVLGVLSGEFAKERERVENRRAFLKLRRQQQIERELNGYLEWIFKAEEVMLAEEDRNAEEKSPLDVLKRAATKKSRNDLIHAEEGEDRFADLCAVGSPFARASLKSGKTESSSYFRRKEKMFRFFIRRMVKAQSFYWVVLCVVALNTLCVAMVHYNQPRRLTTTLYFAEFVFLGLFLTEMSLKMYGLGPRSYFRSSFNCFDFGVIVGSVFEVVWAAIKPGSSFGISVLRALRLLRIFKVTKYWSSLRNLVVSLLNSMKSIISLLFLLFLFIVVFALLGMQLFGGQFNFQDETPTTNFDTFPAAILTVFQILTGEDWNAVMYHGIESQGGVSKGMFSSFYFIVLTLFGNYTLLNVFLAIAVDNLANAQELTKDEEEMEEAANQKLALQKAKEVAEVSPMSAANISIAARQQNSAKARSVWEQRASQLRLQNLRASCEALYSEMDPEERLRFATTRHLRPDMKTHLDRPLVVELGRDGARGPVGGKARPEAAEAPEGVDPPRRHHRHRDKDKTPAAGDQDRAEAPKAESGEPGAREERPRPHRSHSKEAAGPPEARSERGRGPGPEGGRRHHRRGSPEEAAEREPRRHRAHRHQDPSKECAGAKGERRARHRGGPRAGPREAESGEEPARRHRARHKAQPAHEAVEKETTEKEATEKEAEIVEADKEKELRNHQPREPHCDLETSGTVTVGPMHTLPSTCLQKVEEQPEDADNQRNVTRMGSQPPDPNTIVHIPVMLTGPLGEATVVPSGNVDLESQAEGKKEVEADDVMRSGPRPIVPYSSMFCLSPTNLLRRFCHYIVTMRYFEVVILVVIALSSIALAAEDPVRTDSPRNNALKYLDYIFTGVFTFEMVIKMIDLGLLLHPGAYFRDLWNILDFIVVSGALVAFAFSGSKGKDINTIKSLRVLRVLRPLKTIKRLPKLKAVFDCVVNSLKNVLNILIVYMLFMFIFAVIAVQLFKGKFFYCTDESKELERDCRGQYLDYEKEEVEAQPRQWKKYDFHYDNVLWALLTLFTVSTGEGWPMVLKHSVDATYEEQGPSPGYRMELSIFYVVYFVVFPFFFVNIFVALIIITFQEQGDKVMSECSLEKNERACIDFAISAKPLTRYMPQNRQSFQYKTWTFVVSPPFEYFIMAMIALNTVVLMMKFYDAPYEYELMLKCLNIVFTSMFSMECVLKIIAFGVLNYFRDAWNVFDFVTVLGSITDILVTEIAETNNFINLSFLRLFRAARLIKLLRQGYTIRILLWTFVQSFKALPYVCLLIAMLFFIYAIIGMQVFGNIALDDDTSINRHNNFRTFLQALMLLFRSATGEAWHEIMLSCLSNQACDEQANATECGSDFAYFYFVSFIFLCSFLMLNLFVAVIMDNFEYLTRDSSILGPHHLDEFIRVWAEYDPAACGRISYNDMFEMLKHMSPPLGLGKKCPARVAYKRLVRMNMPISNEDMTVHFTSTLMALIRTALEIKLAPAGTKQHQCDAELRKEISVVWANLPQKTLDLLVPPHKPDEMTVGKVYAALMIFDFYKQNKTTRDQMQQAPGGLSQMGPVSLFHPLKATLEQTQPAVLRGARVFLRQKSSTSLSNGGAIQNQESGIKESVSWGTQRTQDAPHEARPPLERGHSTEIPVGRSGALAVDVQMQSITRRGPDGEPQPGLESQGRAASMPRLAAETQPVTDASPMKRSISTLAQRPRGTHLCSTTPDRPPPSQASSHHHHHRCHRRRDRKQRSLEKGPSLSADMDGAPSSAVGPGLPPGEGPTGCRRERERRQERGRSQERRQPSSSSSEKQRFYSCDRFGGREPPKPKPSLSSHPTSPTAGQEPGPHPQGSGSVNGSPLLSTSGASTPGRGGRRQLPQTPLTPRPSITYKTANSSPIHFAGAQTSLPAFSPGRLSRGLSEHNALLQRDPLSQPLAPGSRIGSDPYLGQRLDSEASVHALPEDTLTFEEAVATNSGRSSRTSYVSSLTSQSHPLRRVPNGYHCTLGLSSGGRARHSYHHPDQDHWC
T6 sequence (Q02410 whole entry): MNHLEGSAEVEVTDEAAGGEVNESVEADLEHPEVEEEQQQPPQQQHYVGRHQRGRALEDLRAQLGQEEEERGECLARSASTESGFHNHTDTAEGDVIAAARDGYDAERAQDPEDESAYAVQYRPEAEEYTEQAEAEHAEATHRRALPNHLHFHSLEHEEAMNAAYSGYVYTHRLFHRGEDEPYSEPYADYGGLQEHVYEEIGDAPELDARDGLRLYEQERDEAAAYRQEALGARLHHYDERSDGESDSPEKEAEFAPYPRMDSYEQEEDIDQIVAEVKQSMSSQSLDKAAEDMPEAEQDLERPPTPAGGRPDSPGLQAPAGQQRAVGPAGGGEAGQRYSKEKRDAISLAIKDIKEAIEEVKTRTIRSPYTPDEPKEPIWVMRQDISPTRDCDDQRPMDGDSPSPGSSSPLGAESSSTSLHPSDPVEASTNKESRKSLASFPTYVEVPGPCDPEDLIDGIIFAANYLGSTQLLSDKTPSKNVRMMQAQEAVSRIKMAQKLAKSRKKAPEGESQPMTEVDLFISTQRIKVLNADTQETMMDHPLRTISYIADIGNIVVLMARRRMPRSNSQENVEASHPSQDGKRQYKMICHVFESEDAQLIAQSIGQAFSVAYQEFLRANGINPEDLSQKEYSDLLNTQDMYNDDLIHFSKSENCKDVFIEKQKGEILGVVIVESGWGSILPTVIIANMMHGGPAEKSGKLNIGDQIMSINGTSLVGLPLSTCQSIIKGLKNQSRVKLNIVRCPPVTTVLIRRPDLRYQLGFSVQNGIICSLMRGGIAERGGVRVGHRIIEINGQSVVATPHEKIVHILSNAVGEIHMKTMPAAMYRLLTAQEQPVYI
Chain of Acyl-homoserine lactone acylase PvdQ (Q9I194 24-193 limits assumed): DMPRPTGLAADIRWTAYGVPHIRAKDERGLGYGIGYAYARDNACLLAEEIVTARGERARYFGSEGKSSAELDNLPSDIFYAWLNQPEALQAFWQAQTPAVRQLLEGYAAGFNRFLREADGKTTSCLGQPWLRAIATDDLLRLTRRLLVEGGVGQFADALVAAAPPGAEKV
Chain of Acyl-homoserine lactone acylase PvdQ (Q9I194 217-762 limits assumed): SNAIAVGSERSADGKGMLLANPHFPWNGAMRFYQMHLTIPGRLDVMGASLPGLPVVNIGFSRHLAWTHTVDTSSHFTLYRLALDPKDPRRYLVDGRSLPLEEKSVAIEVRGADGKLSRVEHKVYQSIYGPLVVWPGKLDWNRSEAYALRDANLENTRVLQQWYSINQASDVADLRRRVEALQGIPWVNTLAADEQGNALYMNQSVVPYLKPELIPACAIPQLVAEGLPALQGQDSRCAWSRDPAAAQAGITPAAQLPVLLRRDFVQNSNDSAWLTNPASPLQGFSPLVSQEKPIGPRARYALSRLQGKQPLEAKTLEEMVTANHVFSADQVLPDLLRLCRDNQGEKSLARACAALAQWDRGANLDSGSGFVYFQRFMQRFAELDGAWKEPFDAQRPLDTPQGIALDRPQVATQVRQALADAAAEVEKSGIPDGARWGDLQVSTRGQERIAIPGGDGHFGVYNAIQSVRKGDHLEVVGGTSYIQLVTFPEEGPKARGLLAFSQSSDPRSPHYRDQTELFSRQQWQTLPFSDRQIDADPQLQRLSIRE
Chain of C-C chemokine receptor type 6 (P51684 whole entry): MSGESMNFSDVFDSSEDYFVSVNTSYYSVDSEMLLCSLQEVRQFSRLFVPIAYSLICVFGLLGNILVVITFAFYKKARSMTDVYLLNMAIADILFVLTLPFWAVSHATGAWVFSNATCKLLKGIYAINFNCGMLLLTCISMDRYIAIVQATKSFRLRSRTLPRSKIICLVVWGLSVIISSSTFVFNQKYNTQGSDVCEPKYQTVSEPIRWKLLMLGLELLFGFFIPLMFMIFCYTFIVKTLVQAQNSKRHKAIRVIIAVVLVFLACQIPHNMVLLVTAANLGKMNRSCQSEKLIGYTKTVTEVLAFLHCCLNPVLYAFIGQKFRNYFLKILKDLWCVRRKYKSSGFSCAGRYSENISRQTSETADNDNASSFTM
Chain of X-box-binding protein 1 (P17861 whole entry): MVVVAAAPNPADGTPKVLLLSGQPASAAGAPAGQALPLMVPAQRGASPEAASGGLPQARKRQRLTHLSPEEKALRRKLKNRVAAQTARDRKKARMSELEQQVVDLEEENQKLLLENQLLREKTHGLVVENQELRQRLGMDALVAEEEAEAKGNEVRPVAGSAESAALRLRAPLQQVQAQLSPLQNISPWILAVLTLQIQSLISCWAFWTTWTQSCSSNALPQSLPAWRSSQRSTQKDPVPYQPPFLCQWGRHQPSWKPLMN

Compound: COc1ccc(OCC(=O)Nc2ccc3oc(-c4ccncc4)nc3c2)cc1
- EC50 [1]: > 100 µM (not active)

Compound: CCOc1ccccc1OCCOc1ccccc1OC(C)C
- EC50 [2]: 5.52 µM (active)

Compound: Cc1ccc(C(C#N)c2ccc(Cl)nn2)cc1 (stereo not given)
- AC50 [3]: 1.6 µM (active)

Compound: Cc1cc2c(cc1C)CSC(c1ccccc1O)SC2
- Absolute IC50 (XBP1) [4]: < 10 µM

Compound: COc1ccc(C(CCNCc2ccc(F)cc2)c2ccc(F)cc2)cc1 (stereo not given)
- EC50 [5]: 9.32 µM (active)
- EC50 [6]: 7.18 µM (active)
- Absolute IC50 (XBP1) [4]: 10 µM

Compound: O=C(C1=NN(c2ccccc2)C2C(=O)N(c3ccccc3Cl)C(=O)C12)c1ccccc1 (stereo not given)
- EC50 [7]: > 300 µM (not active)
- IC50 [8]: > 6.21 µM (active)
- IC50 [9]: > 55.7 µM (not active)
- EC50 [10]: > 300 µM (inconclusive)

Compound: CCOc1ccc(NC(=O)c2ccccn2)cc1
- AC50 [11]: > 52 µM (inactive)
- AC50 [12]: 4.4 µM (active)
- AC50 [13]: > 52 µM (inactive)
- AC50 [14]: 43.4 µM (active)
- AC50 [15]: 0.999 µM (active)
- AC50 [16]: 1.23 µM (active)
- AC50 [3]: > 100 µM (inactive)

Compound: O=C(NCCCc1ccccc1)c1cc(-c2ccco2)nc2ccccc12
- IC50 [17]: > 56.8 µM (inactive)
- IC50 [18]: 44.7 µM (active)

Compound: N#CC(=C1C=CC(=NO)C(Cl)=C1)c1ccc(Cl)cc1
- IC50 [19]: > 66.6 µM (inactive)
- IC50 [20]: > 66.6 µM (inactive)

Compound: C/C(=N\O)C(=O)C(CN1CCCCC1)CN1CCCCC1
- IC50 [21]: > 50 µM (not active)
- IC50 [19]: > 66.6 µM (inactive)
- IC50 [20]: > 66.6 µM (inactive)

Compound: Oc1cccc(/C=N/Nc2cccc3cccnc23)c1
- EC50 [22]: > 67.5 µM (inactive)
- EC50 [1]: > 100 µM (not active)
- EC50 [23]: > 67.5 µM (inactive)
- IC50 [24]: > 67.5 µM (inactive)
- EC50 [25]: > 67.5 µM (inactive)
